Reference: patent US10231954B2, “Neurodegenerative therapies” (LYTIX BIOPHARMA AS, priority 2014, dated 2019)
Where two headings read alike, the source gives them in different places.

What was measured:
Type in all cases: biochemical
[1] = molecular target: T1, MARK4 (Homo sapiens, UniProt Q96L34); test: Kinase profiling MARK4; conditions: for remaining activity at 100 µM: read-out: residual kinase activity, MARK4
T1 sequence (Q96L34 1-752): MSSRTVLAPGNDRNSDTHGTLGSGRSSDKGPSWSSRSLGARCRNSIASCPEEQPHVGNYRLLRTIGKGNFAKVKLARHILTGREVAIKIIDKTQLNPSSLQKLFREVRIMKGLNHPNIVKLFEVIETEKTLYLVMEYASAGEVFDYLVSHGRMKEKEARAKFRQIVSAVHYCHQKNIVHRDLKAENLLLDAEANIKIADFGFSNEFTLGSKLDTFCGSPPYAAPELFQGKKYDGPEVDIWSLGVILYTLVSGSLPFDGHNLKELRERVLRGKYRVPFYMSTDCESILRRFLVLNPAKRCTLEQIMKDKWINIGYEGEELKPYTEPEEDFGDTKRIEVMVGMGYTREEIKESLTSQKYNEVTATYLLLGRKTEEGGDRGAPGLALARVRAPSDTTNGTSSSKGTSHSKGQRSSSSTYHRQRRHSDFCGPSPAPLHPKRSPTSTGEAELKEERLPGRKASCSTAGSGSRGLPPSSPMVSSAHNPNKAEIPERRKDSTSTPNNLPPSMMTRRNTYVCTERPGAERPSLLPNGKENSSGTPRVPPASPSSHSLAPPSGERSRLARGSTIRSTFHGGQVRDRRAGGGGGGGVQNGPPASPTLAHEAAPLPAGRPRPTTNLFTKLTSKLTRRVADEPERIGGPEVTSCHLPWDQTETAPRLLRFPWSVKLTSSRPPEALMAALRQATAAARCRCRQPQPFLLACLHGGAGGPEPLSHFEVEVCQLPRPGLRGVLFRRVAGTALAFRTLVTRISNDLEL
Source text: (§1) Any value less that 25 is considered to be highly significant inhibition.

[2] = molecular target: T2, NUAK1 (Homo sapiens, UniProt O60285); test: Kinase profiling NUAK1; conditions: for remaining activity at 100 µM: read-out: residual kinase activity, NUAK1
T2 sequence (O60285 1-661): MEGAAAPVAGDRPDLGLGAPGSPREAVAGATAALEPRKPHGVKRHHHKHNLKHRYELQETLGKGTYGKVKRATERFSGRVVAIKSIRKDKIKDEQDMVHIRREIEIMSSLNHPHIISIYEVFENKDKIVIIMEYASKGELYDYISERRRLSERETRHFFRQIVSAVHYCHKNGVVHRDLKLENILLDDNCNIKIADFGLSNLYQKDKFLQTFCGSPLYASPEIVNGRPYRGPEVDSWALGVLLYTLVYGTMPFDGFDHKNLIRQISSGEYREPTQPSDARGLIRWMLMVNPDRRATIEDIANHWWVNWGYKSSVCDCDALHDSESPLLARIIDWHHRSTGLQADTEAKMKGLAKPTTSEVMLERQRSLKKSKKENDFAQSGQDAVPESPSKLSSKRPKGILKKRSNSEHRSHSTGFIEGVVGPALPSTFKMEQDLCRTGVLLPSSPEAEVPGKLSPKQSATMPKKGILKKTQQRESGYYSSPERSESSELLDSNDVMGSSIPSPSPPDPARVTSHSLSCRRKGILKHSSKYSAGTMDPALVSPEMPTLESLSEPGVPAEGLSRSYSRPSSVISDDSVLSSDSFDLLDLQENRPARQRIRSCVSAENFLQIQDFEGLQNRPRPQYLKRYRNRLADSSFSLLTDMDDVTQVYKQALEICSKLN
Source text: as §1

[3] = molecular target: SIK3 (Homo sapiens, UniProt Q9Y2K2); test: Kinase profiling SIK3; conditions: for remaining activity at 100 µM: read-out: residual kinase activity, SIK3
Source text: as §1

[4] = molecular target: TESK1 (Homo sapiens, UniProt Q15569); test: Kinase profiling TESK1; conditions: for remaining activity at 100 µM: read-out: residual kinase activity, TESK1
Source text: as §1

[5] = molecular target: T3, ASK1 (Homo sapiens, UniProt Q99683); test: Kinase profiling ASK1; conditions: for remaining activity at 100 µM: read-out: residual kinase activity, ASK1
T3 sequence (Q99683 1-1374): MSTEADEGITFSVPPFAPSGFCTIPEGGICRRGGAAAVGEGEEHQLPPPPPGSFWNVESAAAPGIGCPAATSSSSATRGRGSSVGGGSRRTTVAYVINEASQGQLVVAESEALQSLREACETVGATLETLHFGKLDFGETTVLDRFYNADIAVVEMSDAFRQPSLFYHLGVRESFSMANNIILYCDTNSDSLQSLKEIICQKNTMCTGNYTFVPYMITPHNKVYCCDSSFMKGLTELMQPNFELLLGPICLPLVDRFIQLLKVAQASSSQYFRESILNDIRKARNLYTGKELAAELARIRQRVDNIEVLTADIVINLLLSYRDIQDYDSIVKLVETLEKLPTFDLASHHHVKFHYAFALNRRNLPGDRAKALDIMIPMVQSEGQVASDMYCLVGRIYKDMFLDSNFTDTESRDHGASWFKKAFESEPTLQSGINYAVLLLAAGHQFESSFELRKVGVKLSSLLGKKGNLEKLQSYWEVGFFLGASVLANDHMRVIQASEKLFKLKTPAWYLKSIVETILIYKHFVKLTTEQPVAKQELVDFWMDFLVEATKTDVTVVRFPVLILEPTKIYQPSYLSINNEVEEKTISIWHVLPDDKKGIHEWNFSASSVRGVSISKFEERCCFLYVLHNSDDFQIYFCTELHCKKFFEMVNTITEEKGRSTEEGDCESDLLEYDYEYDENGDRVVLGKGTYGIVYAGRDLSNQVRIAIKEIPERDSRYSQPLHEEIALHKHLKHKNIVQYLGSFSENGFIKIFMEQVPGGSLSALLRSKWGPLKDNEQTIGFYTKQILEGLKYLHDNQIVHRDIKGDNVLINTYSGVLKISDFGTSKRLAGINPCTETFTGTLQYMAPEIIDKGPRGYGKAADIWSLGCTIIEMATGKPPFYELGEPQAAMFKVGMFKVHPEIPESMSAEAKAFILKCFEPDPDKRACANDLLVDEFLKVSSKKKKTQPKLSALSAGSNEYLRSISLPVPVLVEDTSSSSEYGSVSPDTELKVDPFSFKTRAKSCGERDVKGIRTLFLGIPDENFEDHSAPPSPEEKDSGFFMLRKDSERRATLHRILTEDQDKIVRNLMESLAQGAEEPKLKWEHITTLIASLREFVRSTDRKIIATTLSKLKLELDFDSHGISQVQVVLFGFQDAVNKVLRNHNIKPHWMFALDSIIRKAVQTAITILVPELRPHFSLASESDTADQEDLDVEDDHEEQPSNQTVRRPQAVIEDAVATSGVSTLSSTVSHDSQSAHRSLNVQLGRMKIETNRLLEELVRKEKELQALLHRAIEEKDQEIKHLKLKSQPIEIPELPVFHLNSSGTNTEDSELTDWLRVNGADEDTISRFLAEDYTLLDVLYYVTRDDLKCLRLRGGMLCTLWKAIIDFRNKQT
Source text: as §1

[6] = molecular target: ERK5 (Homo sapiens, UniProt Q13164); test: Kinase profiling ERK5; conditions: for remaining activity at 100 µM: read-out: residual kinase activity, ERK5
Source text: as §1

[7] = 100 micromolar inhibitor concentration, 100 is no change
[8] = 100 micromolar inhibitor, 100 = no change

SIK3, sequence (Q9Y2K2 whole entry, species assumed): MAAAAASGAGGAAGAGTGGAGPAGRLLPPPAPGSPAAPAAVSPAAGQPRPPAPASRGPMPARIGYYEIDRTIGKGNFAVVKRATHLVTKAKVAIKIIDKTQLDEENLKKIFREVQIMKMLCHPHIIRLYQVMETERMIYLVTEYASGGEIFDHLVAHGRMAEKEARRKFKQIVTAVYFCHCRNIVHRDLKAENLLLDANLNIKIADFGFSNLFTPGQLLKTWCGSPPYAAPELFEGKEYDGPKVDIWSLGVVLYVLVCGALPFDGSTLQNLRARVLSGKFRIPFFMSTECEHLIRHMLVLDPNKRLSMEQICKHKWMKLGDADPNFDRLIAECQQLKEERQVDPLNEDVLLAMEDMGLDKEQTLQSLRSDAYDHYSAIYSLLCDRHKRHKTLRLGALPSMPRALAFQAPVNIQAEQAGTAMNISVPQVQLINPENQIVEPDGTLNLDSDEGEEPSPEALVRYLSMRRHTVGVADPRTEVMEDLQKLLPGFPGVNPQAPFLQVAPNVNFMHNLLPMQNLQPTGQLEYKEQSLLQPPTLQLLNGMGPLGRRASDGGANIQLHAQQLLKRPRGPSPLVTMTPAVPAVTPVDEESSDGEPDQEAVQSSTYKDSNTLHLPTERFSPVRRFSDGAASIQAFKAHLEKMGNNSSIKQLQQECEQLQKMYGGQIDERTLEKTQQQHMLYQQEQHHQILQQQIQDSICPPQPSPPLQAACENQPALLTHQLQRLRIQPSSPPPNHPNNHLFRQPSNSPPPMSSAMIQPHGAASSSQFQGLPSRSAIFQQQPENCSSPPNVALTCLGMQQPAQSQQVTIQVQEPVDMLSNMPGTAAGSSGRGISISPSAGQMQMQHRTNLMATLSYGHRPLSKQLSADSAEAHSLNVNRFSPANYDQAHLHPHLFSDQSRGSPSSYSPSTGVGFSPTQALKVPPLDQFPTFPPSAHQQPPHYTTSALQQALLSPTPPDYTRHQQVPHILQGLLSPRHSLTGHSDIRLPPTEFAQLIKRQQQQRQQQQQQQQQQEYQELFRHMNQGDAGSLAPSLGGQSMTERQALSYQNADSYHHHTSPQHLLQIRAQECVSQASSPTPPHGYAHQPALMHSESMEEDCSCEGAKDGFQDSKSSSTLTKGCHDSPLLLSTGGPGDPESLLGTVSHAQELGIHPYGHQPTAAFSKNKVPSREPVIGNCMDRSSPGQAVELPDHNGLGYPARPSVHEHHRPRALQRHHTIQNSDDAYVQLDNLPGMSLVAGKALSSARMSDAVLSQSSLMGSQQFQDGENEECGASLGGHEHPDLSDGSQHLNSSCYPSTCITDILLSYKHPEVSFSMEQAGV
ERK5, sequence (Q13164 whole entry, species assumed): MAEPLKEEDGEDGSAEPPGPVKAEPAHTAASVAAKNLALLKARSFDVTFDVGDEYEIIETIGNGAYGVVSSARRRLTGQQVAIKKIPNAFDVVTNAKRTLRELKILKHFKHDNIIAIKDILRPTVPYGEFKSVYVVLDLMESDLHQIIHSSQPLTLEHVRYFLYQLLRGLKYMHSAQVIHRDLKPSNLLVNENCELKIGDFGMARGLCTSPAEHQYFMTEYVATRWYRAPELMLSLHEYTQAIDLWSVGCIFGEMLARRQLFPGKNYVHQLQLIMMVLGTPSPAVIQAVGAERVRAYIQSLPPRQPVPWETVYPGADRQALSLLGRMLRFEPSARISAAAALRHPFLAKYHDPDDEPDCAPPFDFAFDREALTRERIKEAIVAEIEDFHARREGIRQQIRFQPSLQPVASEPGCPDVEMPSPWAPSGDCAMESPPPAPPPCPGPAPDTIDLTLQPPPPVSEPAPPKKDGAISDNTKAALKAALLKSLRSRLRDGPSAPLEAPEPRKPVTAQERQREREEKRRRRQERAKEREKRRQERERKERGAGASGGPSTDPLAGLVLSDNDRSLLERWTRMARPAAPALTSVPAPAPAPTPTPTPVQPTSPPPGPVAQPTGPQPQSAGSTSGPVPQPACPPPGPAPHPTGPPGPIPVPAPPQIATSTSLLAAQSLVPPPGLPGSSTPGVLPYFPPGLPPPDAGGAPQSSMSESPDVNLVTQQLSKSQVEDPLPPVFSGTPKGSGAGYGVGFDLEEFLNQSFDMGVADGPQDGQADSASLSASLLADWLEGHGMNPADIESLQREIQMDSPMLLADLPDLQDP
TESK1, sequence (Q15569 whole entry, species assumed): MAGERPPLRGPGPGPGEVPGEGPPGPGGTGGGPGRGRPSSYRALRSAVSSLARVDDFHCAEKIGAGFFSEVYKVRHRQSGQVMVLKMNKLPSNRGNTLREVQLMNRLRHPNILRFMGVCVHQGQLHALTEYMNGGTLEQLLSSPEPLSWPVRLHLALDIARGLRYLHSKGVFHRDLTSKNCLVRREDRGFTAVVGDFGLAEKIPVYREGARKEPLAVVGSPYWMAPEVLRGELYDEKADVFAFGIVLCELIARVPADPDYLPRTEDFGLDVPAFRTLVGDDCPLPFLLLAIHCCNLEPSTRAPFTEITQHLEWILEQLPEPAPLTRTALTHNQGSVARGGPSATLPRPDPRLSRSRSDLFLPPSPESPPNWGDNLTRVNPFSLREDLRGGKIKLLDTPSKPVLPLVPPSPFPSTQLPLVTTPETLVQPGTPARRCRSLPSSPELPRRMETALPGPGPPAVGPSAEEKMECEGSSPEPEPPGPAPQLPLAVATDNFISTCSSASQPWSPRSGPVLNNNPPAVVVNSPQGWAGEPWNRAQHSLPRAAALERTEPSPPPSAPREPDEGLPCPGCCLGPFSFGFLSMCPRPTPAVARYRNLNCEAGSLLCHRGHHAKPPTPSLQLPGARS

Structure (SMILES) | residual kinase activity, ERK5 [6, 7] | residual kinase activity, MARK4 [1, 7] | residual kinase activity, NUAK1 [2, 7] | residual kinase activity, SIK3 [3, 7] | residual kinase activity, TESK1 [4, 7] | residual kinase activity, ASK1 [5, 7] | other results
CC(=O)Nc1nc2cc(O)ccc2s1 [Compound 01-66, N-(5-hydroxybenzo[d]thiazol-2-yl)acetamide] |  |  |  |  |  |  | remaining activity at 100 µM [1]: 80%; remaining activity at 100 µM [2]: 44%; remaining activity at 100 µM [3]: 57%; remaining activity at 100 µM [4]: 94%; remaining activity at 100 µM [5]: 70%
CC(=O)Nc1nc2cc(F)ccc2s1 [Compound 03-77] |  |  |  |  |  |  | remaining activity at 100 µM [6, 7]: 38%; remaining activity at 100 µM [1, 7]: 86%; remaining activity at 100 µM [2, 7]: 66%; remaining activity at 100 µM [3, 7]: 89%; remaining activity at 100 µM [4, 7]: 106%; remaining activity at 100 µM [5, 7]: 54%
CC(=O)Nc1nc2cc(C)ccc2s1 [Compound 03-76] | 62 | 80 | 58 | 103 | 106 | 23 | 
COc1ccc2sc(NC(=O)c3ccc(NC(C)=O)cc3)nc2c1 [MS:LY-2-77] | 74 |  |  |  |  |  | 
O=C(Nc1nc2ccc(O)cc2s1)c1cccnc1 [Compound 08-44] | 43 | 77 | 39 | 80 | 70 | 18 | 
O=C(Nc1nc2ccc(O)cc2s1)c1ccccn1 [Compound 03-12] | 53 | 90 | 52 | 82 | 84 | 70 | 
CC(=O)Nc1nc2ccccc2s1 [Compound 03-32] | 66 | 91 | 74 | 89 | 95 | 66 | 
CC(=O)Nc1nc2cc(C(F)(F)F)ccc2s1 [Compound 03-73] |  |  |  |  |  |  | remaining activity at 100 µM [6, 7]: 67%; remaining activity at 100 µM [1, 7]: 97%; remaining activity at 100 µM [2, 7]: 74%; remaining activity at 100 µM [3, 7]: 103%; remaining activity at 100 µM [4, 7]: 115%; remaining activity at 100 µM [5, 7]: 83%
COc1ccc2sc(NC(=O)c3cccc(NC(C)=O)c3)nc2c1 [MS:LY-2-85] | 45 |  |  |  |  |  | 
CC(=O)Nc1ccccc1C(=O)Nc1nc2ccc(O)cc2s1 [Compound 08-39] | 47 |  |  |  |  |  | 
CC(=O)Nc1cccc(NC(=O)c2nc3ccc(O)cc3s2)c1 [Compound 03-07, N-(3-acetamidophenyl)-6-hydroxybenzo[d]thiazole-2-carboxamide] |  |  |  |  |  |  | remaining activity at 100 µM [6, 8]: 48%; remaining activity at 100 µM [1, 8]: 71%; remaining activity at 100 µM [2, 8]: 37%; remaining activity at 100 µM [3, 8]: 56%; remaining activity at 100 µM [4, 8]: 101%; remaining activity at 100 µM [5, 8]: 86%
O=C(Nc1nc2cc(O)ccc2s1)c1cccnc1 [Compound 03-33] | 58 | 95 | 68 | 92 | 102 | 51 | 
O=C(Nc1nc2ccc(O)cc2s1)c1ccccc1 [Compound 03-60] | 30 | 67 | 14 | 42 | 65 | 12 | 
CC(=O)Nc1nc2ccc(C(F)(F)F)cc2s1 [Compound 01-90] |  |  |  |  |  |  | remaining activity at 100 µM [1, 7]: 66%; remaining activity at 100 µM [2, 7]: 66%; remaining activity at 100 µM [3, 7]: 82%; remaining activity at 100 µM [4, 7]: 93%; remaining activity at 100 µM [5, 7]: 35%
CC(=O)Nc1cccc(C(=O)Nc2nc3ccc(O)cc3s2)c1 [Compound 03-58] | 31 |  |  |  |  |  | 
CC(=O)NC(C)C(=O)Nc1nc2ccc(C(F)(F)F)cc2s1 (stereo not drawn) [Compound 03-80] | 27 |  |  |  |  |  | 
CC(=O)Nc1ccc(C(=O)Nc2nc3cc(O)ccc3s2)cc1 [MS:LY-2-87] | 54 |  |  |  |  |  | 
CC(=O)Nc1cccc(C(=O)Nc2nc3cc(O)ccc3s2)c1 [MS:LY-2-89] | 32 |  |  |  |  |  | 
CC(=O)Nc1nc2ccc(C#N)cc2s1 [Compound 01-94] |  |  |  |  |  |  | remaining activity at 100 µM [1, 7]: 51%; remaining activity at 100 µM [2, 7]: 46%; remaining activity at 100 µM [3, 7]: 73%; remaining activity at 100 µM [4, 7]: 90%; remaining activity at 100 µM [5, 7]: 18%
CC(=O)Nc1nc2ccc(O)cc2s1 [Compound 01-71] |  |  |  |  |  |  | remaining activity at 100 µM [1, 7]: 66%; remaining activity at 100 µM [2, 7]: 26%; remaining activity at 100 µM [3, 7]: 46%; remaining activity at 100 µM [4, 7]: 61%; remaining activity at 100 µM [5, 7]: 53%
